# Measurements from PubChem BioAssay AID652053 (Broad Institute, 2013).
# System: Huh7 psiCHECK-miR122 Renilla luciferase reporter, 48 h
# Assay: suppression of miR-122 activity, Renilla luciferase sensor – cell-based, Huh7 psiCHECK-miR122, cherry-pick, dose response (AID 652053)
row,SMILES,AC40
1,C[C@H]1CN([C@@H](C)CO)C(=O)c2cc(N(C)C)ccc2O[C@H]1CN(C)Cc1ccc(C(=O)Nc2ccccc2N)cc1,5.42 µM
2,Cc1ccc(-c2nn3c(C)nnc3c3ccccc23)cc1S(=O)(=O)NCCN1CCOCC1,3.24 µM
3,CC(=O)N1CCOc2ccc(S(=O)(=O)NCCc3ccc(Cl)cc3)cc21,5.14 µM
4,Cc1cc(S(=O)(=O)NCC2CC2)c(Cl)cc1Cl,2.7 µM
5,O=C(C1CCC1)N1CCc2cc(S(=O)(=O)NCc3ccco3)ccc21,12.3 µM
6,CCc1nnc(NC(=O)c2ccc(NS(=O)(=O)c3ccccc3)cc2)s1,2.68 µM
7,C[C@@H]1CN([C@@H](C)CO)C(=O)c2cccc(NC(=O)Nc3ccc(F)cc3)c2O[C@H]1CN(C)Cc1ccc(C(F)(F)F)cc1,3.97 µM
8,CCCC(=O)NC(=S)Nc1ccc(S(=O)(=O)Nc2ccc(OCC)cc2)cc1,1.42 µM
9,CN(C)c1ccc(C(=O)c2ccc(N(C)C)c3ccccc23)cc1,4.07 µM
10,Cc1cc(Br)ccc1NC(=S)NCCc1ccccc1,9.65 µM
11,CS(=O)(=O)N(CC(=O)Nc1ccc(Cl)c(Cl)c1)C1CCCCC1,13.5 µM
12,COc1ccccc1NS(=O)(=O)c1cc(C(=O)NCc2ccco2)ccc1C,13.5 µM
13,O=C(c1ccccc1F)N1C[C@@H]2[C@H](c3ccccc31)[C@H](CO)N2C(=O)c1ccc(F)cc1,21 µM
14,O=C1c2ccccc2C2=Nc3ccccc3SC(c3ccccc3F)C12 (stereo not drawn),21 µM
15,COc1ccc(OC)c(S(=O)(=O)Nc2ccc3oc4c(c3c2)C(=O)CCC4)c1,17.7 µM
16,Cc1c(C)c(C)c(S(=O)(=O)NCCc2ccccn2)c(C)c1C,1.69 µM
17,CCOC(=O)CNS(=O)(=O)c1cc(-c2nnc(Nc3ccc4c(c3)OCO4)c3ccccc23)ccc1C,2.63 µM
18,CCCCn1c(NC(=O)c2ccc(Br)o2)c(S(=O)(=O)c2ccccc2)c2nc3ccccc3nc21,25.7 µM
19,CCOc1ccc(NS(=O)(=O)c2cc(NC(=O)C3CC3)ccc2C)cc1Br,2.15 µM
20,COC(=O)c1ccc(Nc2nnc(-c3ccc(C)c(S(=O)(=O)NCC4CCCO4)c3)c3ccccc23)cc1 (stereo not drawn),0.761 µM
21,C[C@H]1CN([C@@H](C)CO)C(=O)c2cccc(NC(=O)Nc3ccccc3)c2O[C@@H]1CN(C)Cc1ccc(C(=O)Nc2ccccc2N)cc1,11.3 µM
22,CCN(CC)C(=S)Nc1ccc(Cl)c(Cl)c1,16 µM
23,COc1ccc(S(=O)(=O)NC2CCCCC2)cc1C,3.14 µM
24,COc1ccccc1NS(=O)(=O)c1cc(N/C(=N/S(=O)(=O)c2ccccc2)c2ccc(F)cc2)ccc1Cl,3.27 µM
25,COc1ccc(NC(=O)c2cc(C)nc3ccccc23)cc1S(=O)(=O)Nc1ccccc1Cl,2.33 µM
26,O=S1(=O)c2ccc(Br)cc2N2CCC[C@H]2CN1Cc1ccccc1,34.9 µM

row,SMILES,AC40
1,CCCC(=O)Nc1ccc2c(c1)C(=O)N(C)[C@H]1CC[C@@H](CC(=O)NCc3cccc(F)c3)O[C@H]1CO2,0.762 µM
2,CCn1cc(S(=O)(=O)CC(=O)Nc2ccc(C)cc2)c2ccccc21,15.1 µM
3,CC(C)C#Cc1ccc2c(c1)O[C@H](CN(C)C(=O)Nc1ccccc1)[C@@H](C)CN([C@@H](C)CO)S2(=O)=O,2.08 µM
4,CCOc1ccccc1N1CCN(C(=O)c2cccc(-c3ccc(O)cc3)c2)CC1,0.659 µM
5,COc1c(S(=O)(=O)NCCCn2ccnc2)ccc(Cl)c1Cl,21.3 µM
6,S=C(NCCc1ccccc1)Nc1ccc(Cl)cc1Cl,5.71 µM
7,O=S(=O)(NCc1cccs1)c1cccc(S(=O)(=O)N2CCCCC2)c1,6.72 µM
8,O=C(OCCN=C1NS(=O)(=O)c2ccccc21)c1ccccc1,9.59 µM
9,C[C@H](CO)N1C[C@H](C)[C@@H](CN(C)Cc2ccc(C(F)(F)F)cc2)Oc2c(NC(=O)C3CCCCC3)cccc2C1=O,0.596 µM
10,CC(C)CC#Cc1ccc2c(c1)O[C@H](CN(C)C(=O)Nc1ccccc1F)[C@@H](C)CN([C@@H](C)CO)S2(=O)=O,2.15 µM
11,COc1ccc(NS(=O)(=O)c2ccc(NC(=S)NC(=O)C(C)C)cc2)cc1,1.34 µM
12,Cc1cc(C(=O)Nc2cccc3c2O[C@H](CN(C)Cc2ccc(C(F)(F)F)cc2)[C@@H](C)CN([C@H](C)CO)C3=O)n(C)n1,0.943 µM
13,CCc1ccc(-c2cc(C)no2)cc1S(=O)(=O)NCc1ccco1,1.61 µM
14,Cc1ccc(S(=O)(=O)Nc2c(C)ccc3nsnc23)cc1,17.6 µM
15,O=C(NCC1CCCO1)C(c1cccs1)N(Cc1cccs1)C(=O)Cn1nnc(-c2cccs2)n1 (stereo not drawn),13.5 µM
16,Cc1ccc(C(C)C)cc1S(=O)(=O)Nc1cccnc1,2.62 µM
17,COc1ccc(OC)c(S(=O)(=O)Nc2ccc(C(C)=O)cc2)c1,1.58 µM
18,COc1ccc(S(=O)(=O)Nc2cc(Cl)ccc2OC)cc1,2.68 µM
19,Cc1ccc(C(C)C)cc1S(=O)(=O)NC1CC(C)(C)NC(C)(C)C1,8.18 µM
20,Cc1cc(C(C)(C)C)cc(S(=O)(=O)Nc2ccc(C(=O)O)cc2)c1C,9.72 µM
21,C[C@H](CO)N1C[C@H](C)[C@@H](CN(C)Cc2ccc(C(F)(F)F)cc2)Oc2ccc(N(C)C)cc2C1=O,0.891 µM
22,Cc1ccccc1C(=O)Nc1ccc(Br)c(C)n1,3.17 µM
23,Cc1ccc(C(=O)Nc2ccc(C)c(S(=O)(=O)Nc3ccccc3Cl)c2)s1,3.03 µM
24,CC(=O)N1CCc2cc(S(=O)(=O)Nc3cccc(C(F)(F)F)c3)ccc21,2.92 µM
25,Cc1ccc(CN2CCSc3ccc(C(=O)NCc4cccnc4)cc32)cc1,10.6 µM
26,Cc1cc(C(O)c2ncc(-c3ccccc3F)[nH]2)ccc1F (stereo not drawn),3.57 µM

row,SMILES,AC40
1,Cc1cccc(NS(=O)(=O)c2cc3c4c(c2)CCC(=O)N4CCC3)c1,1.94 µM
2,O=S(=O)(NC1CCCCC1)c1cccc(-c2nnc(-c3ccccc3)o2)c1,2.16 µM
3,CCC(=O)NC(=S)Nc1ccc(S(=O)(=O)NC2CCCCC2)cc1,1.1 µM
4,O=C(Nc1ccc(S(=O)(=O)NCc2ccccc2)cc1)Nc1ccc2c(c1)OCO2,2.08 µM
5,COc1ccc(NS(=O)(=O)c2ccc(Cl)c(N)c2)cc1Br,3.88 µM
6,COc1ccccc1CN(C)C(=O)c1cccc(S(=O)(=O)N2CCCc3ccccc32)c1,4.57 µM
7,Cc1ccc(S(=O)(=O)NC2CCCCCC2)cc1,2.92 µM
8,COc1cccc(CN(C(=O)Cc2c[nH]c3ccccc23)C(C(=O)NC2CCCCC2)c2cccs2)c1 (stereo not drawn),6.05 µM
9,COc1ccc(OC)c(S(=O)(=O)Nc2cc3c4c(c2)CCN4C(=O)CC3)c1,2.85 µM
10,COc1ccc2nc(Nc3nc(CSc4nc5ccccc5[nH]4)cc(=O)[nH]3)nc(C)c2c1,9.96 µM
11,C[C@@H]1CN([C@@H](C)CO)S(=O)(=O)c2ccc(C#CCN(C)C)cc2O[C@@H]1CN(C)Cc1ccc2c(c1)OCO2,8.29 µM
12,CCOC(=O)c1c(NC(=O)c2ccccc2N(C)S(=O)(=O)c2ccccc2)sc2c1CCCC2,13.3 µM
13,Cc1ccc(C(=O)NCc2ccco2)cc1S(=O)(=O)Nc1cccc(C)c1C,6.29 µM
14,CCOc1cc(C)c(Cl)cc1S(=O)(=O)NCc1ccco1,1.79 µM
15,C[C@H]1CN([C@@H](C)CO)C(=O)c2cccc(NC(=O)C3CCOCC3)c2O[C@@H]1CN(C)Cc1ccc2c(c1)OCO2,18.2 µM
16,CCOc1ccc(NS(=O)(=O)c2cc(C)c(C)cc2C)cc1,2.04 µM
17,COc1ccccc1NS(=O)(=O)c1cc(NC(=O)CCC(=O)c2cccs2)ccc1Cl,21.7 µM
18,COc1ccc(S(=O)(=O)NCCN2CCOCC2)c2ccccc12,0.789 µM
19,COc1ccc(C(=O)NC(=S)Nc2ccc(S(=O)(=O)Nc3cc(OC)ncn3)cc2)cc1,4.82 µM
20,COc1ccc(NS(=O)(=O)c2cc(N)ccc2N2CCOCC2)cc1,6.74 µM
21,COc1ccc(CN(C(=O)c2ccc(-c3ccccc3)[nH]2)C(C(=O)NCC2CCCO2)c2ccc(C)o2)cc1 (stereo not drawn),5.58 µM
22,COc1ccc(NS(=O)(=O)c2cc(NC(=O)Cc3c(F)cccc3Cl)ccc2OC)cc1,3.67 µM
23,Cc1cc(C)c(S(=O)(=O)NC(C)C)c(C)c1-n1cnnn1,1.3 µM
24,Cc1nc2ccc(NS(=O)(=O)c3c(C)c(C)cc(C)c3C)cc2s1,0.68 µM
25,Cc1cc(C)cc(NS(=O)(=O)c2ccc3c(c2)C(C)(C)C(=O)N3C)c1,1.21 µM
26,COc1cc(C)c(C(C)C)cc1S(=O)(=O)N1CCN(C)CC1,7.96 µM

row,SMILES,AC40
1,Cc1ccc(S(=O)(=O)N2CCC3(CC2)OCCN3S(=O)(=O)c2cccs2)cc1,3.63 µM
2,NC(=O)Cn1cc(/C=N\NS(=O)(=O)c2ccc(F)cc2)c2ccccc21,3.22 µM
3,O=S(=O)(NC1CC2CCC1C2)c1ccc2c(c1)OCCO2 (stereo not drawn),3.87 µM
4,COc1ccc(OC)c(NS(=O)(=O)c2ccc(N3CCCC3=O)cc2)c1,14.8 µM
5,CCCNC(=O)NC[C@@H]1[C@@H](c2ccc(C3=CCCC3)cc2)[C@@H](CO)N1C(=O)CC,16.9 µM
6,COc1cc(NS(=O)(=O)c2cc3c(cc2C)NC(=O)CO3)cc(OC)c1,4.02 µM
7,O=C(CCc1ccc(S(=O)(=O)NC2CCCCC2)cc1)N(Cc1ccccc1)Cc1ccccc1,2.07 µM
8,COc1ccc(OC)c(S(=O)(=O)Nc2cccc(-c3ccc4nncn4n3)c2)c1,2.4 µM
9,COc1cc(NS(=O)(=O)c2ccc(Br)s2)cc(OC)c1,5.31 µM
10,CCN(CC)S(=O)(=O)c1ccc(N2CCOCC2)c(NS(=O)(=O)c2ccc(C(C)C)cc2)c1,5.51 µM
11,Cc1ccc(NS(=O)(=O)c2cc(Br)cnc2N)cc1C,2.36 µM
12,CCOc1ccc2cc(C3CC(c4ccco4)=NN3S(C)(=O)=O)c(=O)[nH]c2c1 (stereo not drawn),7.29 µM
13,COc1ccc(NS(=O)(=O)c2cc(C)ccc2NC(=O)c2cc(C)oc2C)cc1,3.23 µM
14,Cc1ccccc1-c1cnc(C(O)c2ccc(F)c(F)c2)[nH]1 (stereo not drawn),6.78 µM
15,O=C(Nc1cc(S(=O)(=O)Nc2ccccc2F)ccc1Cl)c1ccc(F)cc1F,7.6 µM
16,COc1ccccc1CNC(=O)C[C@H]1CC[C@H]2[C@H](COc3ccc(NS(=O)(=O)c4ccc(C)cc4)cc3C(=O)N2C)O1,22.4 µM
17,CCc1ccc(NS(=O)(=O)c2cc(OC)ccc2OC)cc1,0.866 µM
18,COc1ccccc1NS(=O)(=O)c1cc(NC(=S)NCC2CCCO2)ccc1C (stereo not drawn),3.52 µM
19,CCOc1ccc(-c2cc(N)n(S(=O)(=O)c3ccc(OC)c(OC)c3)n2)cc1,4.11 µM
20,COc1ccc(C)cc1S(=O)(=O)Nc1ccc(F)cc1,1.04 µM
21,Cc1cc(C)c(-n2nnnc2SCC(=O)c2cccs2)c(C)c1,14.9 µM
22,CCC(C)(C)NC(=O)C(c1cccn1C)N(C(=O)Cn1nnc2ccccc21)c1ccc(OC)cc1OC (stereo not drawn),21 µM
23,COc1ccc(-c2c(O)c(C#N)c(-c3ccccc3)n(-c3ccc(OC)cc3)c2=O)cc1,20 µM
24,CCN(CC)c1ccc(NC(=O)c2ccccn2)cc1S(=O)(=O)Nc1ccccc1OC,4.42 µM
25,c1ccc(-n2nnnc2-c2cccc3ccccc23)cc1,10.6 µM
